Measurements reported in ChEMBL document CHEMBL4507315 (2021).

Experiments:
[1] = biological target: Mitogen-activated protein kinase kinase kinase 6 (Homo sapiens) (UniProt O95382); settings: Compound concentration 100.0 nM
[2] = biological target: Calcium/calmodulin-dependent protein kinase type IV (Homo sapiens) (UniProt Q16566); settings: Compound concentration 100.0 nM
[3] = biological target: Cyclin-dependent kinase 11A (Homo sapiens) (UniProt Q9UQ88); settings: Compound concentration 100.0 nM
Cyclin-dependent kinase 11A (Homo sapiens), sequence (Q9UQ88 whole entry): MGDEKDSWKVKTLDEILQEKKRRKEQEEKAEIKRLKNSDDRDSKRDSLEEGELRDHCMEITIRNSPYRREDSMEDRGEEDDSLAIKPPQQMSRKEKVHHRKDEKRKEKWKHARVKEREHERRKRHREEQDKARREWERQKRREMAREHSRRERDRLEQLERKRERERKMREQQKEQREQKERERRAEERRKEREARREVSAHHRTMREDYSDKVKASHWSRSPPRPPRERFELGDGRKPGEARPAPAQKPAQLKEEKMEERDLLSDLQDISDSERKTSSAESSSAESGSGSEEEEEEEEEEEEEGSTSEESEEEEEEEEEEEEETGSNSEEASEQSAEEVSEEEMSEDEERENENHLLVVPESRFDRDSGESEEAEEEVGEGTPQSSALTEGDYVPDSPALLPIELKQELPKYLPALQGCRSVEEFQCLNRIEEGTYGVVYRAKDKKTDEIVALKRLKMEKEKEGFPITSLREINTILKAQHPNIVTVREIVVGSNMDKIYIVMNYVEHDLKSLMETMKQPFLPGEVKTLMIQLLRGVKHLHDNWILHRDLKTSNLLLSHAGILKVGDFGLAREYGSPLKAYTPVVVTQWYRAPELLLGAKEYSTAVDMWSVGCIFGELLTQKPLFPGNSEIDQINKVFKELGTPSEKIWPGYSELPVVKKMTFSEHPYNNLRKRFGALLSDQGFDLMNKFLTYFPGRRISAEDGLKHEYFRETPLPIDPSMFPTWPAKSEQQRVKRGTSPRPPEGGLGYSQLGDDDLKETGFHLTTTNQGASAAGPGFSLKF

[4] = biological target: Cyclin-dependent kinase 3 (Homo sapiens) (UniProt Q00526); settings: Compound concentration 100.0 nM
Cyclin-dependent kinase 3 (Homo sapiens), sequence (Q00526 whole entry, looked up): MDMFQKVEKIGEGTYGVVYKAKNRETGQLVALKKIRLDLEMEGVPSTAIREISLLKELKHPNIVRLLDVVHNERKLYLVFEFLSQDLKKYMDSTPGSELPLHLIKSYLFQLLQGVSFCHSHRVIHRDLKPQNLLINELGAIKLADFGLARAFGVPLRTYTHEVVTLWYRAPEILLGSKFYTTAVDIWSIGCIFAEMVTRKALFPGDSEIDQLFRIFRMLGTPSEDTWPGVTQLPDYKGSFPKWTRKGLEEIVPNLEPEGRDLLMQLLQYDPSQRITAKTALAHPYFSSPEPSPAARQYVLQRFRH

[5] = biological target: Dual specificity protein kinase CLK1 (Homo sapiens) (UniProt P49759); settings: Compound concentration 100.0 nM
Dual specificity protein kinase CLK1 (Homo sapiens), sequence (P49759 whole entry, looked up): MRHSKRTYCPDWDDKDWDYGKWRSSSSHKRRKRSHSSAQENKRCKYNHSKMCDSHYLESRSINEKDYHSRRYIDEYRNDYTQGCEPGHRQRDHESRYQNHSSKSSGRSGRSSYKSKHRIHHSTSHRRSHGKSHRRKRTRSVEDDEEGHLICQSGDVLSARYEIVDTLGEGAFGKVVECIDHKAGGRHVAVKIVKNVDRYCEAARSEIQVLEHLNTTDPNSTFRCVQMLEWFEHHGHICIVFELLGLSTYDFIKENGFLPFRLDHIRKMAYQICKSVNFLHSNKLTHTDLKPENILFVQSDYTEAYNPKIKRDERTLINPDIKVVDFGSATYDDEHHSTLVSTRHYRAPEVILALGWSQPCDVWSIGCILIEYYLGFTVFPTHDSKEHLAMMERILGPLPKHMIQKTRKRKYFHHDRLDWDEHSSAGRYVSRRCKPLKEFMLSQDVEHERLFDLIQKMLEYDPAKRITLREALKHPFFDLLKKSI

[6] = system: Epidermal growth factor receptor (Homo sapiens), P00533 [G719S]; settings: Compound concentration 100.0 nM
[7] = biological target: Eukaryotic translation initiation factor 2-alpha kinase 1 (Homo sapiens) (UniProt Q9BQI3); settings: Compound concentration 100.0 nM
[8] = biological target: Receptor tyrosine-protein kinase erbB-4 (Homo sapiens) (UniProt Q15303); settings: Compound concentration 100.0 nM
[9] = biological target: Fibroblast growth factor receptor 1 (Homo sapiens) (UniProt P11362); settings: Compound concentration 100.0 nM
[10] = biological target: Fibroblast growth factor receptor 2 (Homo sapiens) (UniProt P21802); settings: Compound concentration 100.0 nM
[11] = system: Receptor-type tyrosine-protein kinase FLT3 (Homo sapiens), P36888 [D835V]; settings: Compound concentration 100.0 nM
[12] = system: Receptor-type tyrosine-protein kinase FLT3 (Homo sapiens), P36888 [R834Q]; settings: Compound concentration 100.0 nM
[13] = biological target: Tyrosine-protein kinase Fyn (Homo sapiens) (UniProt P06241); settings: Compound concentration 100.0 nM
[14] = biological target: Tyrosine-protein kinase ITK/TSK (Homo sapiens) (UniProt Q08881); settings: Compound concentration 100.0 nM
[15] = system: Mast/stem cell growth factor receptor Kit (Homo sapiens), P10721 [A829P]; settings: Compound concentration 100.0 nM
Mast/stem cell growth factor receptor Kit (Homo sapiens), P10721 [A829P], sequence (P10721 whole entry A829P): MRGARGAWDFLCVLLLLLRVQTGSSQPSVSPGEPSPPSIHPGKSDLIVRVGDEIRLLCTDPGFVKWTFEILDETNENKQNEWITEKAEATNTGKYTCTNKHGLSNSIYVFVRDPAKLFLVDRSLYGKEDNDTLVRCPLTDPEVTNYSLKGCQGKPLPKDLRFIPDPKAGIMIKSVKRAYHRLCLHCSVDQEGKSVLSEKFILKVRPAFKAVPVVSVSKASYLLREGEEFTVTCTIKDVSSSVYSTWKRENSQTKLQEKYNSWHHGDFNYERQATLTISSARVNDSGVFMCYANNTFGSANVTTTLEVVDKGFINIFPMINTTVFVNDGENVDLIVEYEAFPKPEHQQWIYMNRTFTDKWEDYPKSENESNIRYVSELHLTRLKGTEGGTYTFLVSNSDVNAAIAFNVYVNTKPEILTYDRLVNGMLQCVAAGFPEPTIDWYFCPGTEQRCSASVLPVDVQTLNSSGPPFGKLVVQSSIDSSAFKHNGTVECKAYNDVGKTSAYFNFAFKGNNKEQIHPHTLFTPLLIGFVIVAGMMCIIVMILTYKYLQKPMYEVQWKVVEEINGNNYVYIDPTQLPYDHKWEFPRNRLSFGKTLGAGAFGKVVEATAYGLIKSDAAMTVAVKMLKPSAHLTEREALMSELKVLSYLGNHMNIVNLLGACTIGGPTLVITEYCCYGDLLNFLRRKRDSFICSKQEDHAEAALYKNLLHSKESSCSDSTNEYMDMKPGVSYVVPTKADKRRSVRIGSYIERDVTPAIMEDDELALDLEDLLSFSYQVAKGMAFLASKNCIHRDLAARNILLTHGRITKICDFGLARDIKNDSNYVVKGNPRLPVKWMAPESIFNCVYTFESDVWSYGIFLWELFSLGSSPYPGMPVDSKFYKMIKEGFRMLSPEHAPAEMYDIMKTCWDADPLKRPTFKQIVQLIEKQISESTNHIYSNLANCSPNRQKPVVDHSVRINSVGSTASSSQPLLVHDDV

[16] = system: Mast/stem cell growth factor receptor Kit (Homo sapiens), P10721 [V559D,V654A]; settings: Compound concentration 100.0 nM
[17] = biological target: Mast/stem cell growth factor receptor Kit (Homo sapiens) (UniProt P10721); settings: Compound concentration 100.0 nM
[18] = biological target: Serine/threonine-protein kinase LATS2 (Homo sapiens) (UniProt Q9NRM7); settings: Compound concentration 100.0 nM
[19] = system: Leucine-rich repeat serine/threonine-protein kinase 2 (Homo sapiens), Q5S007 [G2019S]; settings: Compound concentration 100.0 nM
[20] = biological target: MAP kinase-activated protein kinase 2 (Homo sapiens) (UniProt P49137); settings: Compound concentration 100.0 nM
[21] = biological target: Tyrosine-protein kinase Mer (Homo sapiens) (UniProt Q12866); settings: Compound concentration 100.0 nM
[22] = biological target: MAP kinase-interacting serine/threonine-protein kinase 2 (Homo sapiens) (UniProt Q9HBH9); settings: Compound concentration 100.0 nM
[23] = biological target: Serine/threonine-protein kinase 24 (Homo sapiens) (UniProt Q9Y6E0); settings: Compound concentration 100.0 nM
[24] = biological target: Serine/threonine-protein kinase mTOR (Homo sapiens) (UniProt P42345); settings: Compound concentration 100.0 nM
[25] = biological target: Serine/threonine-protein kinase NIM1 (Homo sapiens) (UniProt Q8IY84); settings: Compound concentration 100.0 nM
Serine/threonine-protein kinase NIM1 (Homo sapiens), sequence (Q8IY84 whole entry): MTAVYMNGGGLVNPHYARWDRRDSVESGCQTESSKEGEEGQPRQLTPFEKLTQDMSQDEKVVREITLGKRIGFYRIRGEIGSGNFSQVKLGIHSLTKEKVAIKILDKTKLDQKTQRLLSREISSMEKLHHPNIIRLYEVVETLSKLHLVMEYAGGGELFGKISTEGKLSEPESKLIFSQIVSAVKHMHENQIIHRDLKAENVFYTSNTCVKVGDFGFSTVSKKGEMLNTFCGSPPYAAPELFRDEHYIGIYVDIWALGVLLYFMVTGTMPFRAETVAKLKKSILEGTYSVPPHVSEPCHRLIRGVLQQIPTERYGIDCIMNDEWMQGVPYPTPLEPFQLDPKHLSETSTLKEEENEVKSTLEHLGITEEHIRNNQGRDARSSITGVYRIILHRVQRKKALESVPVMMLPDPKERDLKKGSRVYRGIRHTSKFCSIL

[26] = biological target: Serine/threonine-protein kinase PAK 2 (Homo sapiens) (UniProt Q13177); settings: Compound concentration 100.0 nM
Serine/threonine-protein kinase PAK 2 (Homo sapiens), sequence (Q13177 whole entry): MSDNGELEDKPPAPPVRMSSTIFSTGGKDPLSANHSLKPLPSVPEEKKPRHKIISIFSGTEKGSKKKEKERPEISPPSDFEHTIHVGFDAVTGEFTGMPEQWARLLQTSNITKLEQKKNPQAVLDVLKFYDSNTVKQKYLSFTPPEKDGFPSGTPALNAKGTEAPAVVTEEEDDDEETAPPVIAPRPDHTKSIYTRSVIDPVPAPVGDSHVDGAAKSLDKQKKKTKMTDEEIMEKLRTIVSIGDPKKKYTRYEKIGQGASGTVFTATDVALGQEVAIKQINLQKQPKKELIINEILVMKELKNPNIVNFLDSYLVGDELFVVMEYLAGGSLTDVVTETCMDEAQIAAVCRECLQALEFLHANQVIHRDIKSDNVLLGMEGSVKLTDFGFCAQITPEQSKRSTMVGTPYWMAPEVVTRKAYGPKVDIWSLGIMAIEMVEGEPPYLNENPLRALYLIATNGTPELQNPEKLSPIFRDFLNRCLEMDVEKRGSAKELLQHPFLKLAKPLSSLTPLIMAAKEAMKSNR

[27] = biological target: Platelet-derived growth factor receptor alpha (Homo sapiens) (UniProt P16234); settings: Compound concentration 100.0 nM
[28] = biological target: Serine/threonine-protein kinase N2 (Homo sapiens) (UniProt Q16513); settings: Compound concentration 100.0 nM
[29] = biological target: Serine/threonine-protein kinase D1 (Homo sapiens) (UniProt Q15139); settings: Compound concentration 100.0 nM
[30] = system: Proto-oncogene tyrosine-protein kinase receptor Ret (Homo sapiens), P07949 [V804L]; settings: Compound concentration 100.0 nM
[31] = biological target: Serine/threonine-protein kinase RIO3 (Homo sapiens) (UniProt O14730); settings: Compound concentration 100.0 nM
[32] = biological target: Proto-oncogene tyrosine-protein kinase ROS (Homo sapiens) (UniProt P08922); settings: Compound concentration 100.0 nM
[33] = biological target: Ribosomal protein S6 kinase alpha-3 (Homo sapiens) (UniProt P51812); settings: Compound concentration 100.0 nM
[34] = biological target: Ribosomal protein S6 kinase alpha-2 (Homo sapiens) (UniProt Q15349); settings: Compound concentration 100.0 nM
[35] = biological target: Serine/threonine-protein kinase Sgk2 (Homo sapiens) (UniProt Q9HBY8); settings: Compound concentration 100.0 nM
Serine/threonine-protein kinase Sgk2 (Homo sapiens), sequence (Q9HBY8 whole entry): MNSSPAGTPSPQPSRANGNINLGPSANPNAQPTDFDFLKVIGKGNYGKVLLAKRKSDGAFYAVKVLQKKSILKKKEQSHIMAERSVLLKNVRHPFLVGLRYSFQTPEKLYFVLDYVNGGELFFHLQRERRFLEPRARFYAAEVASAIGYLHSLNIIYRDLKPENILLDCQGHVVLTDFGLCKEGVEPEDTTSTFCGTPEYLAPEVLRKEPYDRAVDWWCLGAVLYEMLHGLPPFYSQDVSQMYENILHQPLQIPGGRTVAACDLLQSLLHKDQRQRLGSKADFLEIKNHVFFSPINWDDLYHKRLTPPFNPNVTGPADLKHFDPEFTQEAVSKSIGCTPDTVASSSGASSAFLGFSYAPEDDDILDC

[36] = biological target: TGF-beta receptor type-1 (Homo sapiens) (UniProt P36897); settings: Compound concentration 100.0 nM
[37] = biological target: Activated CDC42 kinase 1 (Homo sapiens) (UniProt Q07912); settings: Compound concentration 100.0 nM
[38] = biological target: Serine/threonine-protein kinase TNNI3K (Homo sapiens) (UniProt Q59H18); settings: Compound concentration 100.0 nM
[39] = biological target: Serine/threonine-protein kinase WNK1 (Homo sapiens) (UniProt Q9H4A3); settings: Compound concentration 100.0 nM
[40] = biological target: Sodium-dependent serotonin transporter (Homo sapiens) (UniProt P31645); settings: Compound concentration 10.0 uM
Sodium-dependent serotonin transporter (Homo sapiens), sequence (P31645 whole entry, looked up): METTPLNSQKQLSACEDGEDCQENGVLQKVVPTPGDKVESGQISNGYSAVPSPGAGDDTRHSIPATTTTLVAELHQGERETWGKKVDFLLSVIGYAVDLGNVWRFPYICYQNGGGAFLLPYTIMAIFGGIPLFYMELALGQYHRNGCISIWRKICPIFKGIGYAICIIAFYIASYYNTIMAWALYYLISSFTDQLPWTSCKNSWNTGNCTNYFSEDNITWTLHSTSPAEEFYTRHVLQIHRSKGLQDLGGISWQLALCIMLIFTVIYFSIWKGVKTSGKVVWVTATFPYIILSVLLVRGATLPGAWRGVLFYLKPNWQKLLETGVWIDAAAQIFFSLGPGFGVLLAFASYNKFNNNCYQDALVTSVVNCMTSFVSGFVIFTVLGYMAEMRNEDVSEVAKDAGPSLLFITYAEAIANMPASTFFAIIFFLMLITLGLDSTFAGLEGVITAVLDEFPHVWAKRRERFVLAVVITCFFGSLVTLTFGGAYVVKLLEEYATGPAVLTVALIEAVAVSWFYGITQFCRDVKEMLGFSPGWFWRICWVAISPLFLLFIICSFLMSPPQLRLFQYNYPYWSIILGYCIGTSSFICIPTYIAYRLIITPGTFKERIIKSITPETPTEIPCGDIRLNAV

[41] = biological target: Alpha-2C adrenergic receptor (Homo sapiens) (UniProt P18825); settings: Compound concentration 10.0 uM
Alpha-2C adrenergic receptor (Homo sapiens), sequence (P18825 whole entry): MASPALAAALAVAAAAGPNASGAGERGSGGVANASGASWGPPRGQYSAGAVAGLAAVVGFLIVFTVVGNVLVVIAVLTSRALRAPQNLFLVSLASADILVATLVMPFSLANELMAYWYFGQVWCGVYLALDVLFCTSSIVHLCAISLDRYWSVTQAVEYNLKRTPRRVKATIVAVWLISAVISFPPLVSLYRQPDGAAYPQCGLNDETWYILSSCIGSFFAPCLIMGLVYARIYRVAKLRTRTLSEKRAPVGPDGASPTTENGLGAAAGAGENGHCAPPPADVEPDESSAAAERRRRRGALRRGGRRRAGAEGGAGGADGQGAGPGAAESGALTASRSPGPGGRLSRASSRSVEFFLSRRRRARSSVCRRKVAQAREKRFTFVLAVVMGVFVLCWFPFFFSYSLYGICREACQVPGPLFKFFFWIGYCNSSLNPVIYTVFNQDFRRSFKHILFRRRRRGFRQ

[42] = biological target: Muscarinic acetylcholine receptor M2 (Homo sapiens) (UniProt P08172); settings: Compound concentration 10.0 uM
[43] = biological target: GABA-A receptor; anion channel (Rattus norvegicus) (UniProt O09028+P15431+P18506+P18508+P19969+P20236+P23574+P23576+P28471+P28473+P30191+P62813+P63079+P63138+Q91ZM7+Q9ES14); settings: Compound concentration 10.0 uM

O=C(NCCCC1CCCCC1)c1ccc(CNC(=O)c2cnn(-c3ccccc3)c2C(F)(F)F)cc1 [SR-321]
inactive: residual activity [1] 100% | residual activity [2] 100% | residual activity [3] 100% | residual activity [4] 100% | residual activity [5] 96% | residual activity [6] 80% | residual activity [7] 95% | residual activity [8] 100% | residual activity [9] 100% | residual activity [10] 100% | residual activity [11] 88% | residual activity [12] 100% | residual activity [13] 86% | residual activity [14] 100% | residual activity [15] 100% | residual activity [16] 100% | residual activity [17] 100% | residual activity [18] 97% | residual activity [19] 100% | residual activity [20] 100% | residual activity [21] 100% | residual activity [22] 100% | residual activity [23] 100% | residual activity [24] 100% | residual activity [25] 70% | residual activity [26] 100% | residual activity [27] 92% | residual activity [28] 100% | residual activity [29] 100% | residual activity [30] 100% | residual activity [31] 100% | residual activity [32] 100% | residual activity [33] 100% | residual activity [34] 100% | residual activity [35] 95% | residual activity [36] 89% | residual activity [37] 100% | residual activity [38] 79% | residual activity [39] 100% | inhibition [40] 0.18% | inhibition [41] 3.68% | inhibition [42] 19.3% | inhibition [43] 14%

Nc1c(C(=O)NCc2ccc(C(=O)NCCCC3CCCCC3)cc2)cnn1-c1ccccc1 [SR-318]
inactive: residual activity [1] 100% | residual activity [2] 98% | residual activity [3] 100% | residual activity [4] 100% | residual activity [5] 100% | residual activity [6] 84% | residual activity [7] 100% | residual activity [8] 89% | residual activity [9] 71% | residual activity [10] 100% | residual activity [11] 100% | residual activity [12] 100% | residual activity [13] 100% | residual activity [14] 93% | residual activity [15] 100% | residual activity [16] 100% | residual activity [17] 100% | residual activity [18] 100% | residual activity [19] 100% | residual activity [20] 100% | residual activity [21] 100% | residual activity [22] 100% | residual activity [23] 91% | residual activity [24] 100% | residual activity [25] 81% | residual activity [26] 66% | residual activity [27] 100% | residual activity [28] 78% | residual activity [29] 100% | residual activity [30] 100% | residual activity [31] 100% | residual activity [32] 83% | residual activity [33] 92% | residual activity [34] 100% | residual activity [35] 72% | residual activity [36] 100% | residual activity [37] 89% | residual activity [38] 100% | residual activity [39] 100% | inhibition [40] 7.75% | inhibition [41] 18.1% | inhibition [42] 22.5% | inhibition [43] 13.3%
